Results on twelve compounds are retold here after PubChem BioAssay (NCI).

SMILES strings stand for the structures.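 Compound exposure: 48 hours, 5 concentrations, 96-well plates. The concentration for full growth arrest is given as TGI.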

What all share (test): growth of human tumour cells (NCI), 48 h
In assay [1] the test system is 786-0 renal.
Assay [2] deals with A498 renal.
In assay [3] the test system is CAKI-1 renal.
Assay [4] deals with DU-145 prostate.
The subject of assay [5] is EKVX NSCLC.
The test system of assay [6] is HCT-116 colon.
The subject of assay [7] is HOP-62 NSCLC.
In assay [8] the test system is KM12 colon.
Assay [9] deals with MALME-3M melanoma.
The test system of assay [10] is MDA-N.
For assay [11], the system named is NCI-H226 lung.
Assay [12] concerns OVCAR-4 ovarian.
Assay [13] has as its system SF-268 CNS.
In assay [14] the test system is SF-295 CNS.
Assay [15] has as its system SK-MEL-2 melanoma.
In assay [16] the test system is SK-MEL-28 melanoma.
For assay [17], the system named is SW-620 colon.
The subject of assay [18] is UO-31 renal.
The subject of assay [19] is NCI-H522 lung.
Assay [20] concerns RXF 393 renal.

On to `Cn1c2ccccc2c(=O)c2cccc(C(=O)NC(CS)C(=O)O)c21` (stereo not given), for which the TGI in assay [1], in assay [2], in assay [3], in assay [4], in assay [5] and in assay [6] was > 100 µM each time. Moreover, the TGI in assay [7], in [8], in assay [9], in assay [10], in [11] and in assay [12] was > 100 µM in each case. The TGI in assay [13], in assay [14], in assay [15], in assay [16], in [17] and in [18] was > 100 µM throughout.
With `CC(=O)N(C)CCc1c[nH]c2ccccc12`, the TGI in [1], in assay [3], in assay [4], in assay [5], in [6] and in assay [7] was > 100 µM in each case. The TGI in assay [8], in [9], in [10], in assay [11], in [19] and in assay [12] was > 100 µM each time. Also, the TGI in assay [13], in assay [14], in assay [15], in assay [16], in [17] and in assay [18] was > 100 µM throughout.
On to `Cn1c2c(c3ccccc31)CCN1C(=O)CN(C(=O)C3CCCCC3)CC21` (stereo not given), for which the TGI in [1], in assay [4], in assay [5], in [6], in [7] and in assay [8] was > 100 µM in each case. In addition, the TGI in [9], in [10], in [11], in assay [19], in assay [12] and in [20] was > 100 µM throughout. Besides, the TGI in [13], in assay [14], in assay [15], in assay [16], in assay [17] and in assay [18] was > 100 µM in each case.
As to `O=C(CC(C(=O)c1ccsc1)c1ccccc1)c1ccccc1` (stereo not given), the TGI in [1], in [2], in assay [3], in assay [4], in assay [5] and in assay [6] was > 100 µM in each case. Also, the TGI is > 100 µM in assay [7]; > 100 µM in assay [8]; > 100 µM in assay [10]; > 100 µM in assay [11]; > 100 µM in assay [19]; 75.9 µM in [12]. Further, the TGI in [20], in assay [13], in [14], in assay [16], in assay [17] and in assay [18] was > 100 µM in each case.
For the compound `CN1C(=O)C2CCCC(=O)N2c2cccnc21` (stereo not given), the TGI in [1], in [3], in [4], in assay [5], in assay [6] and in [7] was > 100 µM in each case. For the same compound, the TGI in assay [8], in assay [9], in assay [10], in [11], in assay [19] and in assay [12] was > 100 µM in each case. Besides, the TGI in [13], in [14], in assay [15], in assay [16], in [17] and in assay [18] was > 100 µM each time.
Regarding `Cc1nc2ccc(F)cc2c2c1CCN2c1ccc(Cl)cc1`, the TGI in assay [1] is 34.9 µM; in assay [2] it was 73.1 µM; in assay [3] it was 79.6 µM; in [4], > 100 µM; in assay [6], 36.2 µM; in [7], 56.4 µM. Moreover, the TGI was 26.9 µM in [9]; 21.7 µM in assay [10]; 72.2 µM in assay [11]; 30.5 µM in assay [19]; > 100 µM in [12]; 55.7 µM in [20]. Moreover, the TGI was > 100 µM in assay [13]; > 100 µM in assay [14]; 41.4 µM in [15]; 28 µM in assay [16]; 54.8 µM in [17]; 78.3 µM in assay [18].
With `CC1=C(/C=C/C(C)=C/C=C/C(C)=C/C(=O)OC2CC(n3cc(F)c(=O)[nH]c3=O)OC2CO)C(C)(C)CCC1` (stereo not given), the TGI in [1] stood at 16.7 µM; in assay [3] it was 16.9 µM; in assay [4], 13.4 µM; in assay [5] it was 32.9 µM; in [6], 14.4 µM; in assay [7], 13.7 µM. In addition, the TGI in assay [8] was found to be 31.4 µM; in assay [9] it was 31.9 µM; in [10] it was 23.2 µM; in assay [11] it was 52.7 µM; in assay [19] it was 11.4 µM; in assay [12], 21.5 µM. Further, the TGI is 24 µM in assay [20]; 19.5 µM in assay [13]; 14.3 µM in [14]; 55.5 µM in assay [15]; 24.6 µM in assay [16]; 26.9 µM in assay [17]. In assay [18], this compound gave a TGI of 14.9 µM.
For the compound `COC(=O)c1nsc(OC)c1Cl`, the TGI in [1], in assay [3], in assay [4], in assay [5], in assay [6] and in assay [7] was > 100 µM in each case. Also, the TGI in assay [8], in assay [9], in assay [10], in [11], in assay [12] and in [20] was > 100 µM in each case. Besides, the TGI in [13], in [14], in assay [16], in assay [17] and in assay [18] was > 100 µM in each case.
`CCOC(=O)/C=C(/C(=O)OCC)n1cnc2c(=O)[nH]c(NC(C)=O)nc21`: the TGI in assay [1], in assay [2], in assay [3], in assay [4], in assay [5] and in assay [6] was > 100 µM throughout. The TGI in assay [7], in assay [8], in [9], in assay [10], in [11] and in [19] was > 100 µM in each case. The TGI in [12], in assay [13], in [14], in [15], in [16] and in [17] was > 100 µM in each case. The TGI in [18] is > 100 µM.
In the case of `O=c1oc2c/c(=C\c3ccc([N+](=O)[O-])cc3)c(=O)c3cccc1c3-2`, the TGI in assay [1], in assay [4], in assay [5], in [6], in assay [7] and in assay [8] was > 100 µM throughout. The TGI in assay [9] is > 100 µM; in [10], > 100 µM; in assay [19] it was 90.5 µM; in assay [13] it was > 100 µM; in [14], > 100 µM; in [15], > 100 µM. The TGI in assay [16], in assay [17] and in assay [18] was > 100 µM throughout.
In the case of `O=C(Cn1c(-c2ccccc2)cc2ccccc21)N1CCCC1`, the TGI in assay [1], in assay [4], in assay [5], in assay [6], in assay [7] and in assay [9] was > 100 µM each time. Also, the TGI in assay [10], in assay [11], in assay [19], in assay [12], in assay [13] and in assay [14] was > 100 µM in each case. In addition, the TGI in assay [15], in [17] and in [18] was > 100 µM each time.
For `CC1CN=C(N(C(=O)Nc2ccccc2)c2ccc(Cl)c(Cl)c2)S1` (stereo not given), the TGI is 93.8 µM in assay [1]; 64.9 µM in assay [2]; > 100 µM in assay [3]; > 100 µM in assay [4]; > 100 µM in [5]; > 100 µM in [6]. The TGI in assay [7] is > 100 µM; in assay [8] it was > 100 µM; in assay [9] it was > 100 µM; in assay [10], > 10 µM; in assay [12], > 100 µM; in assay [13], > 100 µM. Besides, the TGI in assay [14] is > 100 µM; in [15], 40.4 µM; in [16] it was > 100 µM; in assay [17], > 100 µM; in [18] it was > 100 µM.
